Where two headings read alike, the source gives them in different places.
How the values were obtained:
[1] = test system: MV4:11 human cancer cell lines; experiment: Anti-proliferative activity, CellTiter-Glo viability assay, 7 day protocol; assay type: cell-based; settings: MV4:11 cells, 7 day incubation, read-out: GI50 on cellular proliferation of MV4:11 human cancer cell lines
How it was run: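 Luminescent CellTiter-Glo readout after 7-day compound exposure of MV4:11 cells plated at 3600 cells/ml (final DMSO 0.1%). GI50 derived from three biological × three technical replicates, reported as mean ± S.E.M.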

WDR5 = WDR5 (Homo sapiens (Human), UniProt P61964); experiment: TR-FRET binding assay (displacement of 10mer-Thr-FAM probe from WDR5); settings: read-out: Ki for Inhibition of WDR5 by TR-FRET assay
[2] = TR-FRET, 10mer-Thr-FAM probe, WDR5-His tag 2 nM, pH 7.0

Compound | GI50 ([1]; Homo sapiens, MV4-11, 168 h) | Ki (WDR5) | Ki (WDR5; [2]) | GI50 ([1]; Homo sapiens, 168 h) | GI50 [1]
COc1cc([C@@H](NC(=O)c2cc(CN3CCCC3=N)cc(-c3cn(C)nc3C(F)(F)F)c2)C2CC2)ccc1F [Example 339, (S)—N-(Cyclopropyl(4-fluoro-3-methoxyphenyl)methyl)-3-((2-iminopyrrolidin-1-yl)methyl)-5-(1-methyl-3-(trifluoromethyl)-1H-pyrazol-4-yl)benzamide] | 100 nM | < 0.1 nM |  |  | 
N=C1CCCN1Cc1cc(C(=O)N[C@H](c2ccc(F)c(Cl)c2)C2CC2)cc(-c2cccnc2C(F)(F)F)c1 [Example 340, (S)—N-((3-Chloro-4-fluorophenyl)(cyclopropyl)methyl)-3-((2-iminopyrrolidin-1-yl)methyl)-5-(2-(trifluoromethyl)pyridin-3-yl)benzamide] | < 100 nM |  | < 0.1 nM |  | 
Cn1cc(-c2cc(CN3CCCC3=N)cc(C(=O)N[C@H](c3ccc(F)c(F)c3)C3CC3)c2)c(C(F)(F)F)n1 [Example 341, (S)—N-(Cyclopropyl(3,4-difluorophenyl)methyl)-3-((2-iminopyrrolidin-1-yl)methyl)-5-(1-methyl-3-(trifluoromethyl)-1H-pyrazol-4-yl)benzamide] | 100 nM |  | 0.35 nM |  | 
Cc1cc([C@@H](NC(=O)c2cc(Cn3ccccc3=N)cc(-c3cccnc3C(F)(F)F)c2)C2CC2)ccc1F [Example 342, (S)—N-(Cyclopropyl(4-fluoro-3-methylphenyl)methyl)-3-((2-iminopyridin-1(2H)-yl)methyl)-5-(2-(trifluoromethyl)pyridin-3-yl)benzamide] | < 100 nM |  | < 0.1 nM |  | 
Cc1cc([C@@H](NC(=O)c2cc(Cn3cccc(C)c3=N)cc(-c3cccnc3C(F)(F)F)c2)C2CC2)ccc1F [Example 343, (S)—N-(Cyclopropyl(4-fluoro-3-methylphenyl)methyl)-3-((2-imino-3-methylpyridin-1(2H)-yl)methyl)-5-(2-(trifluoromethyl)pyridin-3-yl)benzamide] | 250 nM |  | 0.51 nM |  | 
Cc1ccn(Cc2cc(C(=O)N[C@H](c3ccc(F)c(C)c3)C3CC3)cc(-c3cccnc3C(F)(F)F)c2)c(=N)c1 [Example 344, (S)—N-(Cyclopropyl(4-fluoro-3-methylphenyl)methyl)-3-((2-imino-4-methylpyridin-1(2H)-yl)methyl)-5-(2-(trifluoromethyl)pyridin-3-yl)benzamide] | 680 nM | 0.48 nM |  |  | 
CCOc1c(C(=O)N[C@H](c2ccc(F)c(C)c2)C2CC2)cc(Cn2ccccc2=N)cc1-c1cn(C)nc1C(F)(F)F [Example 347, (S)—N-(Cyclopropyl(4-fluoro-3-methylphenyl)methyl)-2-ethoxy-5-((2-iminopyridin-(2H)-yl)methyl)-3-(1-methyl-3-(trifluoromethyl)-1H-pyrazol-4-yl)benzamide] | < 100 nM |  | < 0.1 nM |  | 
CCOc1c(C(=O)N[C@H](c2ccc(F)c(C)c2)C2CC2)cc(Cn2cc(F)ccc2=N)cc1-c1cn(C)nc1C(F)(F)F [Example 349, (S)—N-(Cyclopropyl(4-fluoro-3-methylphenyl)methyl)-2-ethoxy-5-((5-fluoro-2-iminopyridin-1(2H)-yl)methyl)-3-(1-methyl-3-(trifluoromethyl)-1H-pyrazol-4-yl)benzamide] |  | < 0.1 nM |  | < 100 nM | 
Cc1cc([C@@H](NC(=O)c2cc(Cn3cccc(F)c3=N)cc(-c3cccnc3C(F)(F)F)c2)C2CC2)ccc1F [Example 350, (S)—N-(Cyclopropyl(4-fluoro-3-methylphenyl)methyl)-3-((3-fluoro-2-iminopyridin-1(2H)-yl)methyl)-5-(2-(trifluoromethyl)pyridin-3-yl)benzamide] | 140 nM |  | 0.12 nM |  | 
Cc1cc([C@@H](NC(=O)c2cc(Cn3cccc(F)c3=N)cc(-c3cn(C)nc3C(F)(F)F)c2)C2CC2)ccc1F [Example 351, (S)—N-(Cyclopropyl(4-fluoro-3-methylphenyl)methyl)-3-((3-fluoro-2-iminopyridin-1(2H)-yl)methyl)-5-(1-methyl-3-(trifluoromethyl)-1H-pyrazol-4-yl)benzamide] | < 100 nM |  | < 0.1 nM |  | 
Cc1cc([C@@H](NC(=O)c2cc(Cn3ccccc3=N)cc(-c3cn(C)nc3C(F)(F)F)c2)C2CC2)ccc1F [Example 352, (S)—N-(cyclopropyl(4-fluoro-3-methylphenyl)methyl)-3-((2-iminopyridin-1(2H)-yl)methyl)-5-(1-methyl-3-(trifluoromethyl)-1H-pyrazol-4-yl)benzamide] | < 100 nM |  | < 0.1 nM |  | 
COc1cc(OC)cc(C(C)NC(=O)c2cc(Cn3ccn(C)c3=N)cc(-c3ccc(F)cc3C)n2)c1 (stereo not shown) [Example 355, N-(1-(3,5-Dimethoxyphenyl)ethyl)-6-(4-fluoro-2-methylphenyl)-4-((2-imino-3-methyl-2,3-dihydro-1H-imidazol-1-yl)methyl)picolinamide] | 1190 nM |  | 3.57 nM |  | 
Cc1cc([C@@H](NC(=O)c2cc(CN3CCOC3=N)cc(-c3cn(C)nc3C(F)(F)F)n2)C2CC2)ccc1F [Example 361, (S)—N-(Cyclopropyl(4-fluoro-3-methylphenyl)methyl)-4-((2-iminooxazolidin-3-yl)methyl)-6-(1-methyl-3-(trifluoromethyl)-1H-pyrazol-4-yl)picolinamide] | 940 nM |  | 0.77 nM |  | 
Cc1ccnc(C(NC(=O)c2cc(Cn3ccn(C)c3=N)cc(-c3ncccc3C(F)(F)F)c2)C2CC2)c1 (stereo not shown) [Example 364, N-(Cyclopropyl(4-methylpyridin-2-yl)methyl)-3-((2-imino-3-methyl-2,3-dihydro-1H-imidazol-1-yl)methyl)-5-(3-(trifluoromethyl)pyridin-2-yl)benzamide] | 7800 nM |  | 4.3 nM |  | 
COc1cc(CNC(=O)c2cc(Cn3ccn(C)c3=N)nc(-c3ccc(F)cc3C)c2)cc(OC)c1 [Example 365, N-(3,5-Dimethoxybenzyl)-2-(4-fluoro-2-methylphenyl)-6-((2-imino-3-methyl-2,3-dihydro-1H-imidazol-1-yl)methyl)isonicotinamide] | 6000 nM |  | 0.55 nM |  | 
COc1ccnc(CNC(=O)c2ccc(F)c(Cn3ccn(C)c3=N)c2)c1 [Example 366, 4-Fluoro-3-((2-imino-3-methyl-2,3-dihydro-1H-imidazol-1-yl)methyl)-N-((4-methoxypyridin-2-yl)methyl)benzamide] | 30000 nM |  | 13 nM |  | 
N—((S)-Cyclopropyl(4-fluoro-3-methylphenyl)methyl)-2-ethoxy-5-((3-fluoro-2-iminopyridin-1(2H)-yl)methyl)-3-(1-methyl-3-(trifluoromethyl)-1,3-dihydro-2λ2-pyrazol-4-yl)benzamide [Example 348] |  | < 0.1 nM |  |  | < 100 nM

— US10844044B2 (Vanderbilt University, priority 2018, dated 2020)
